The OPERA property sets (Mansouri et al. 2018)
Where a SMILES comes first, the peptide text is derived from it.

Work on `O=C(O)CCCCON=C(c1cccc(C(F)(F)F)c1)c1ccncn1` yielded a logP of 3.14.
Molecule `Nc1nc(N)c2c([N+](=O)[O-])cccc2n1` has a logP of 1.19.
In the case of `Nc1nc(NC2CC2)c2ncn([C@@H]3C=C[C@@H](CO)C3)c2n1`, the logP is reported as 1.22.
For `CN(C)CCCC(c1ccccc1)c1ccccc1`, the logP was 4.91.
In the case of `Cc1ccc2c(c1)OCN(CCO[N+](=O)[O-])C2=O`, the logP is reported as 2.44.
Work on `COc1cccc(CCl)c1` yielded a logP of 2.68.
`CC(CO)CNc1[nH]cnc2ncnc1-2` (configuration not stated) showed a logP of 0.61.
Work on `C=C(C)C(=O)OCC(COC(=O)C(=C)C)COC(=O)C(=C)C` yielded a logP of 3.53.
`CC(=O)OCOC(=O)N(C)N=Nc1ccc(Br)cc1` gave a logP of 3.64.
Molecule `NC1CCN(c2nc3c(cc2F)c(=O)c(C(=O)O)cn3-c2ccc(F)cc2F)C1` (configuration not stated) has a logP of -0.46.
Molecule `COc1ccc(CCNCC(O)COc2ccc(CCc3nc(Br)c[nH]3)cc2)cc1OC` (configuration not stated) has a logP of 3.
`CSc1cnc(C2=NC(C)(C(C)C)C(=O)N2)c(C(=O)O)c1` (configuration not stated) showed a logP of 0.75.
Molecule `Cc1ccc(S(=O)(=O)C(=Cc2ccccc2)C(=O)OC(C)C)cc1` has a logP of 3.92.
Molecule `CCCNC(=O)Cn1cccc(O)c1=O` has a logP of -0.24.
With `Cc1ccc(C(=O)OCCCn2ccc(=O)c(O)c2C)cc1` the logP was 1.79.
For `COC(=O)C(C)NP(=O)(OCC1C=CC(n2cc(C)c(=O)[nH]c2=O)O1)Oc1ccc(C(C)=O)cc1` (configuration not stated), the logP was 0.9.
In the case of `COc1ccc(C2CC(=O)N(CCN(C)C)c3cccc(C(F)(F)F)c3C2)cc1` (configuration not stated), the logP is reported as 5.1.
Molecule `Cc1cc2c(nc1N)[nH]c1ccccc12` has a logP of 2.9.
`Cc1nc2c3c(c(C(=O)N(C)C)cn2c1C)CCC(c1ccc(F)cc1)O3` (configuration not stated) showed a logP of 3.5.
Work on `COCCNc1[nH]cnc2ncnc1-2` yielded a logP of 0.42.
`COc1ccc(C2Cc3c(cccc3C(F)(F)F)N(CCN(C)C)C(=O)C2Cc2ccccc2)cc1` (configuration not stated) gave a logP of 7.2.
Molecule `CC(C)CC(N)C(=O)NC(CC(C)C)C(=O)NC(Cc1ccc(O)cc1)C(=O)O` (stereo not drawn) (H-Leu-Leu-Tyr-OH; configuration not given here) has a logP of -1.34.
In the case of `Oc1ccc(CNc2ncnc3nc[nH]c23)cc1`, the logP is reported as 1.55.
In the case of `COCC(O)CN(C(C)=O)c1c(I)c(C(=O)NCC(O)CO)c(I)c(C(=O)NCC(O)CO)c1I` (configuration not stated), the logP is reported as -2.42.
`CCCNc1[nH]cnc2ncnc1-2` gave a logP of 1.44.
Molecule `CC(C)CC(N)C(=O)NC(CC(C)C)C(=O)NC(C)C(=O)NC(Cc1ccccc1)C(=O)O` (configuration not stated) (H-LLAF-OH; configuration not given here) has a logP of -1.
`CCCC(=NOCC)C1=C(O)CC2(CCSCC2)OC1=O` gave a logP of 2.9.
In the case of `Clc1cc(Cl)c2c(oc3c(Cl)ccc(Cl)c32)c1Cl`, the logP is reported as 6.34.
Work on `c1ccc(CCCCNc2[nH]cnc3ncnc2-3)cc1` yielded a logP of 3.29.
With `Nc1nc(N)c2c(I)cccc2n1` the logP was 2.12.
With `CCOc1cc2ncnc(Nc3ccccc3F)c2cc1OCC` the logP was 3.02.
`CC=C(C)C1(C)CC(O)=C(C(CCC)=NOCC)C(=O)O1` (configuration not stated) gave a logP of 3.4.
Molecule `CC1(C)SC2C(NC(=O)C(c3ccccc3)S(=O)(=O)O)C(=O)N2C1C(=O)O` (configuration not stated) has a logP of -0.22.
For `COc1cccc2c1CCC(N)C2C` (configuration not stated), the logP was 2.26.
`O=S(=O)(NC(=S)N1CCCCC1)c1cnccc1NC1CCCCCC1` showed a logP of 4.15.
For `CN1COCc2c1ccc1cc3ccc4c(c3nc21)COC(=O)N4`, the logP was 1.7.
Work on `CC(C)CC(NC(=O)C(CC(C)C)NC(=O)C(NC(=O)C(C)N)C(C)C)C(=O)O` (configuration not stated) (H-AVLL-OH; configuration not given here) yielded a logP of -1.74.
Work on `COC(=O)c1ccc(OP(=O)(NC(C)C(=O)OC)OCC2C=CC(n3cc(C)c(=O)[nH]c3=O)O2)cc1` (configuration not stated) yielded a logP of 1.01.
`CCC(C)C(NC(=O)CNC(=O)C1CCCN1C(=O)C(N)Cc1ccc(O)cc1)C(=O)O` (configuration not stated) (H-YPGI-OH; configuration not given here) gave a logP of -1.65.
In the case of `CCCOC(=O)C=COc1ccccc1`, the logP is reported as 3.72.
Work on `O=c1cc(-c2c(Cl)cccc2Cl)oc2ccccc12` yielded a logP of 3.79.
For `COc1ccc(Br)cc1CNC1CCCNC1c1ccccc1` (configuration not stated), the logP was 4.2.
In the case of `CCCc1nc(NCC(=O)N(C)C)nc(N2CCOCC2)n1`, the logP is reported as 0.67.
For `CNCc1ccc(C)cc1`, the logP was 1.96.
`O=C(O)Cc1ccccc1Nc1cc(Cl)cc(Cl)c1` gave a logP of 5.07.
`O=C(O)C1CSC(c2ccc(O)cc2O)=N1` (configuration not stated) gave a logP of 1.1.
With `NC(Cc1ccccc1)C(=O)NC(Cc1ccccc1)C(=O)NCC(=O)NC(Cc1ccccc1)C(=O)O` (configuration not stated) (H-FFGF-OH; configuration not given here) the logP was 0.17.
`c1ccc(Nc2nnc(Cn3ccc4ccccc43)s2)cc1` gave a logP of 3.47.
With `CCOP(=O)(OCC)C(C)(C)[N+]([O-])=Cc1ccccn1` the logP was 0.68.
In the case of `CSCCC(NC(=O)C(N)CC(C)C)C(=O)O` (stereo not drawn) (H-Leu-Met-OH; configuration not given here), the logP is reported as -1.87.
Work on `COP(=O)(OC)Oc1ccc(C#N)cc1` yielded a logP of 0.84.
In the case of `CCOC(=O)C1=C(C)NC(C)=C(C(=O)OC(C)C)C1c1cccc2c1OCO2` (configuration not stated), the logP is reported as 4.71.
Work on `Clc1cccc(N2CCN(CCn3nc4ccccc4n3)CC2)c1` yielded a logP of 4.1.
Work on `COc1cc(SC)ccc1-c1cn2cccnc2n1` yielded a logP of 2.44.
Work on `C[N+](C)([O-])C(c1ccccc1)c1ccccc1` yielded a logP of 0.82.
With `Fc1ccccc1CNc1[nH]cnc2ncnc1-2` the logP was 2.27.
`O=C(O)c1cc(O)c2ccc(Cl)cc2n1` gave a logP of 1.05.
Molecule `CCN(CC)c1ccc(-n2c(C(F)(F)F)nn(C)c2=S)cn1` has a logP of 3.14.
With `CNc1ncnc2c1ncn2Cc1ccccc1F` the logP was 1.86.
Molecule `CCCCCCCCCCCCCCNCCO` has a logP of 5.74.
`COC(=O)C(C)NP(=O)(OCC1C=CC(n2cc(C)c(=O)[nH]c2=O)O1)Oc1ccc(OC(F)(F)F)cc1` (configuration not stated) showed a logP of 1.86.
With `CCC(=O)Nc1ccc(OCC(O)CNC(C)C)cc1` (configuration not stated) the logP was 1.02.
Molecule `NC1=NCC(CN2CCN(c3ccccc3F)CC2)O1` (configuration not stated) has a logP of 1.06.
Work on `Cc1cc2c(C)c3ccc(=O)oc3cc2o1` yielded a logP of 2.84.
`Brc1c2ccccc2cc2ccccc12` showed a logP of 5.37.
`CC(=O)c1c2ccccc2cc2ccccc12` gave a logP of 3.6.
`COC(=O)c1[nH]cc(-c2ccccc2C)c1N1CCOCC1` showed a logP of 2.8.
`CC1CCC(NC(=O)N2C(=O)N(C)CC2O)CC1` (configuration not stated) gave a logP of 2.41.
Molecule `Cc1oc2cc3oc(=O)ccc3cc2c1C` has a logP of 2.93.
For `Cc1cccc(C)c1OCC1CN=C(N)O1` (configuration not stated), the logP was 2.
For `C=CCC1C(=O)N(CCN(C)C)c2ccccc2CC1c1ccc(OC)cc1` (configuration not stated), the logP was 5.3.
Molecule `Cc1oc2c(C)cc3ccc(=O)oc3c2c1C` has a logP of 3.34.
`Nc1nc(N)c2c(S(=O)(=O)c3ccccc3)cccc2n1` gave a logP of 2.14.
For `COc1cc2ncnc(Nc3cccc(I)c3)c2cc1OC`, the logP was 3.65.
Work on `CC(C)NC(=NC#N)NS(=O)(=O)c1cnccc1NC1CCCCC1` yielded a logP of 1.53.
For `Nc1nnnn1-c1ccc([N+](=O)[O-])cc1`, the logP was 0.77.
Work on `O=C1C=C(c2ccc(Cl)cc2)C(=O)N1c1ccc(Cl)cc1` yielded a logP of 3.
For `CCCCN(C)CC(=O)Nc1c(C)cccc1C`, the logP was 2.74.
`CNC(Cc1ccccc1)C(=O)N1CCCC1C(=O)NCC1CCC(N)CC1` (configuration not stated) showed a logP of 1.12.
`COc1ccc(C2Cc3cc(C(F)(F)F)ccc3N(CCN(C)C)C(=O)C2OC(C)=O)cc1` (configuration not stated) showed a logP of 4.8.
`CC(C)(C)[N+]([O-])=Cc1ccccc1[N+](=O)[O-]` gave a logP of 0.8.
Work on `NC(Cc1ccccc1)C(=O)NC(Cc1ccccc1)C(=O)O` (stereo not drawn) (H-Phe-Phe-OH; configuration not given here) yielded a logP of -0.85.
Molecule `CN(C)CCc1ccccc1` has a logP of 2.38.
For `COc1ccc(C2Cc3c(ccc(Br)c3OC)N(CCN(C)C)C(=O)C2C)cc1` (configuration not stated), the logP was 5.4.
`Cc1oc2ccc3c(C)cc(=O)[nH]c3c2c1C` gave a logP of 3.18.
In the case of `COCCOC(=O)C1=C(C)NC(C)=C(C(=O)OC(C)C)C1c1cccc2c1OCO2` (configuration not stated), the logP is reported as 3.94.
Molecule `O=C1Nc2ccc(Cl)cc2C(c2ccccc2F)=NC1O` (configuration not stated) has a logP of 1.81.
